In patent US12023308B2, “Agents for reversing toxic proteinopathies” (THE BROAD INSTITUTE, INC., priority 2019, dated 2024):

Columns and labels:
TMED9 = molecular target: T1, TMED9 (Homo sapiens, UniProt Q9BVK6); assay: TMED9 abundance (IF) in patient iPSC-derived kidney organoids; type: cell-based; details: 10 μM, 72 hours
T1 construct: TMED9 abundance in P cells at escalating temperatures (as indicated) with or without treatment with BRD-4780; endogenous in cells; host or cells: P cells (intact cells treated, then heated and lysed)
T1 sequence (Q9BVK6 38-235): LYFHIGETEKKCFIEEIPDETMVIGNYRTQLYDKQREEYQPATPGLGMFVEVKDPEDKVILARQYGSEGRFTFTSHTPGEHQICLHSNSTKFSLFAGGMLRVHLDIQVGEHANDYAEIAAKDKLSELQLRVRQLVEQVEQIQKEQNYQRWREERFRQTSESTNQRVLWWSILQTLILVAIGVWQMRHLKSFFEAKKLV
Description: (§1) Kidney organoids were immersion-fixed for 15 min in 4% PFA at 4° C. and subsequently frozen in OCT using dry ice and 100% ethanol. Six […] cryostat sections (CM1950, Leica) were thaw-mounted on microscope slides (Fisherbrand™ Superfrost™ Plus, Fisher Scientific) and kept in the cryostat (at −26° C.) for the duration of the sectioning process. Prior to immunostaining, organoid sections were rinsed in PBS for 5 min, incubated for 20 min at room temperature (RT) in PBS blocking solution containing 5% normal donkey serum (530-100ML, EMD Millipore) and 1.5% Tween® 20 (P1379, Sigma-Aldrich), then incubated overnight at 4° C. with primary antibodies diluted in the same blocking solution (1:500, monoclonal Armenian hamster anti-MUC1, Ab80952, Abcam; 1:500, monoclonal Fab-A-VSH anti-fsMUC1, AbD22655.4, Bio-Rad; 1:300 monoclonal Rat anti-E Cadherin [DECMA-1], ab11512, Abcam; 1:500 polyclonal Rabbit anti-Laminin, L9393-100UL, Sigma-Aldrich; 1:500 Na/K-ATPase, ab76020, Abcam; 1:300 Fluorescein labeled Lotus Tetragonolobus Lectin (LTL), FL-1321, Vector laboratories; 1:100, polyclonal, Rabbit anti-TMED9, 21620-1-AP, Proteintech). […]

total MUC1 mRNA = assay: MUC1 transcription assay (RT-PCR profiling screen) in P cells; type: cell-based, human; details: P cells, 24 hours
Description: qPCR was performed using a previously described protocol (Bittker, 2012). P cells seeded at 2000 cells/well in 384-well, clear bottom, white wall plates were grown for 24 hr, then treated with profiling compounds transferred by pinning to duplicate plates. JQ1 (250 nM) and DMSO were used for controls as above. After 24 hr, cells were washed and cDNAs were made using ABI Cells-to-Ct kit (Thermo Fisher Scientific®, Waltham, Mass.). MUC1 and HMBS delta Cp values were determined using a Roche LightCycler 480 Instrument and TaqMan probes for MUC1 FAM (4351368 assay ID Hs00159357_m1) and HMBS VIC (4448486-assay ID Hs00609297_m1) (Thermo Fisher Scientific®, Waltham, Mass.), in 5 μL reactions. The fold change effect of the compounds on total MUC1 mRNA was normalized to JQ1 and DMSO controls, as described above.

MUC1-fs [1] = assay: MUC1-fs IF in MKD patient iPSC-derived kidney organoids; type: cell-based, human; details: 10 μM, 72 hours, organoids P1-P3
Description: as §1
For a sequence analysis illustration, refer to FIG. 12B. […] MUC1-wt signal intensities were calculated within each WT reference region and averaged for entire section. […]

MUC1-fs [2] = assay: MUC1-fs immunofluorescence high-content imaging assay in P cells; type: cell-based, human; details: read-out: EC50 for removal of MUC1-fs (IF); P cells treated 48 hours
Description: Cells grown on CellCarrier-96 or -384 well Ultra microplates (PerkinElmer) were fixed 10 min in PBS containing 4% PFA (Electron Microscopy Sciences), permeabilized 15 min in 0.5% Triton X100 (X100-100ML, Sigma-Aldrich), blocked for 1 hr in blocking reagent (100 mM Tris HCL pH8; 150 mM NaCL; 5 g/L Blocking Reagent [11096176001, Roche]) and treated for 1 hr with primary antibodies diluted in blocking reagent (1:500, monoclonal Fab-A-VSH anti-fsMUC1, AbD22655.2, Bio-Rad; 1:2000, monoclonal Mouse anti-MUC1 (CD227), 60137, Stemcell Technologies; 1:200, polyclonal, Mouse anti-GM130, ab169276, Abcam; 1:100, polyclonal, Rabbit anti-TMED9, 216201-AP, Proteintech; 1:800, polyclonal, Rabbit anti-SEC31A, 17913-1-AP, Proteintech; 1:400, monoclonal, Rabbit anti-EEA1 (C45B10), 3288S, Cell signaling technology; 1:100, polyclonal, Rabbit anti-ERGIC-53, E1031, Sigma-Aldrich; 1:400, monoclonal, Mouse anti-LAMP1 (D401S), 15665, Cell signaling technology; 1:1000, polyclonal, Rabbit anti-Calnexin, ab22595, Abcam; 1:2000, monoclonal, Rabbit anti-GM130 (D6B1) XP, 12480, Cell signaling technology; 1:200, monoclonal, Rabbit anti TNG46, ab50595, Abcam; 1:100, monoclonal, Rabbit anti-Rab7 (D95F2) XP, 9367, Cell signaling technology; 1:100, monoclonal, Rabbit anti-Rab11 (D4F5) XP, 5589, Cell signaling technology). Fixed, stained cells were washed three times in PBS and incubated for 1 hr with secondary antibodies in blocking solution (1:500, Alexa Fluor 488® Goat anti-Mouse IgG, A-11029, Thermo Fisher Scientific®; 1:500, Alexa Fluor 647® F(ab′)2-Goat anti-Rabbit IgG, A21246, Thermo Fisher Scientific®; 1:2000, Hoechst 33342, H3570, Thermo Fisher Scientific®), then washed three times in PBS and imaged.
Cell nuclei were first identified using Hoechst staining, and cell number was calculated. Cytoplasmic regions were then detected around each nucleus based on combined channels. The cells from the edge of the field were eliminated from the analysis. For the quantification of protein abundance, the total signal intensity value for each antibody was calculated separately in the cell cytoplasm and the average signal per cell was calculated for each well.
P cells were seeded 24 hr prior to compound treatment at a density of 12,000 cells/well in 384 well Cell Carrier Ultra plates (6057308, Perkin Elmer), pre-coated with 0.25 mg/mL Synthemax II SC Substrate (3535, Corning). Compounds of the repurposing library set (Corsello et al., 2017) were used at 5 doses (35, 3.5, 0.35, 0.035 and 0.0035 μM) for the primary screen and 10 doses (16, 5.6, 1.8, 0.6, 0.21, 0.07, 0.02, 0.008, 0.002 and 0.0008 μM) for the following screens. The compounds, in two replicates, were transferred from compound source plates to the cell plates using the HighRes Pin Tool. […] After 48 hr incubation, cells were fixed for 20 min in 4% PFA (Electron Microscopy Sciences) in PBS, washed twice, then permeabilized (10 min) with 0.5% Triton-X100 (X100-100ML, Sigma-Aldrich) in PBS and washed once more. Cells were blocked for 10 min at RT with Blocking solution (100 mM Tris HCL pH8; 150 mM NaCL; 5 g/L Blocking Reagent [11096176001, Roche]), then incubated 90 min at RT with one of the following primary antibodies in Roche Blocking solution: 1:500, monoclonal Fab-A-VSH anti-MUC1-fs, AbD22655.2, Bio-Rad; 1:2000, monoclonal mouse anti-MUC1 (214D4), 05-652-KC, Millipore; 1:1000, monoclonal, Rabbit anti-GM130 (D6B1) XP, 12480, Cell signaling technology. […]

SMILES: CC(C)[C@@H]1[C@H]2CC[C@H](C2)[C@H]1N (racemic) [BRD-4780, 2-endo-amino-3-exo-isopropylbicyclo[2.2.1]heptane]
- TMED9 abundance in patient organoids (TMED9): reduced TMED9 to levels comparable to cells in N1 organoids
- effect on MUC1 transcriptional regulation (total MUC1 mRNA): no effect on MUC1 transcriptional regulation
- MUC1-fs protein in patient kidney organoids (MUC1-fs [1]): cleared the mutant protein from intracellular compartments in all patient organoids
- EC50 (MUC1-fs [2]): 0.143 µM
